Here are results for 27 compounds from ChEMBL document CHEMBL2406963, “Tetrazole and triazole as bioisosteres of carboxylic acid: discovery of diketo tetrazoles and diketo triazoles as anti-HCV agents” (Bioorg Med Chem Lett, 2013).

The test system of series [1] is Hepatitis C virus. Nature of the series: Antiviral activity against HCV infected in human Huh7 cells assessed as inhibition of viral replication by measuring EGFP autofluorescence at 50 uM by CCK8 assay relative to control. As to conditions: Huh-7. It counts as functional, Hepacivirus hominis. Background: Formazan colour is commonly taken as a measure of viable cells.

Series [2] deals with Hepatitis C virus. As to the kind of experiment: Antiviral activity against HCV infected in human Huh7 cells assessed as inhibition of viral replication by measuring EGFP autofluorescence at 2 uM by CCK8 assay relative to control. Type of series: functional, Hepacivirus hominis. As to conditions: Huh-7.
Series [3] in a line: Selectivity index, ratio of CC50 for human HuH7 cells to EC50 for HCV. On the set-up: species or system Huh-7.
A short description of series [4]: Cytotoxicity against human HuH7 cells. It counts as cell-based, Huh-7.
For series [5], the system named is Hepatitis C virus. As to the kind of experiment: Antiviral activity against HCV infected in human Huh7 cells assessed as inhibition of viral replication by measuring EGFP autofluorescence by CCK8 assay. It counts as functional, organism-based, Hepacivirus hominis. As to conditions: Huh-7.
For series [6], the system named is Hepatitis C virus. Nature of the series: Inhibition of NS5A protein synthesis in HCV by Western blot analysis. It counts as functional, organism-based. The conditions noted are these: Hepacivirus hominis. In general terms: Immunoblotting shows a protein as a band on a membrane.
Series [7] has as its system Hepatitis C virus. Nature of the series: Inhibition of viral genome mRNA expression in HCV by RT-PCR analysis. Type of series: functional, organism-based. The conditions noted are these: Hepacivirus hominis.

SMILES strings stand for the structures.

As to `O=C(CC(=O)c1ccccc1OCc1ccc(F)cc1)c1nnn[nH]1`, the inhibition (usually the drop in the measured response relative to a control, in per cent) at 50 µM in the series with Hepatitis C virus [1] worked out at 6.8%.

Consider `CC(C)C(=O)OC[C@H]1O[C@@H](n2ccc(N)nc2=O)[C@](C)(F)[C@@H]1OC(=O)C(C)C` [MERICITABINE], for which, in the series with Hepatitis C virus [2], the inhibition at 2 µM turned out to be 75.3%.

In the case of `O=C(CC(=O)c1nnn[nH]1)c1cccc(OCc2ccccc2)c1`, the inhibition at 50 µM with Hepatitis C virus [1] is 11.1%.

Take `O=C(CC(=O)c1nnc[nH]1)c1ccc(OCc2ccc(Cl)cc2)cc1`: the “Ratio CC50/EC50” value in series [3] is above 77. Also, the CC50 (in general, the concentration giving 50% cytotoxicity) in series [4] was above 500 µM. For the same compound, the inhibition at 50 µM in the series with Hepatitis C virus [1] turned out to be 70.2%. The half-maximal effective concentration (EC50) (usually the concentration at which the effect is half-maximal) in the series with Hepatitis C virus [5] came out at 6.5 µM.

In the case of `O=C(CC(=O)c1nnn[nH]1)c1ccc(OCc2ccccc2)cc1`, in the series with Hepatitis C virus [1], the inhibition at 50 µM is 54.9%.

As to `O=C(CC(=O)c1nnc[nH]1)c1cccc(OCc2ccc(Cl)cc2)c1`, in the series on Hepatitis C virus [1], the inhibition at 50 µM turned out to be 29.2%.

As for `O=C(CC(=O)c1nnc[nH]1)c1ccccc1`, the inhibition at 50 µM in the series on Hepatitis C virus [1] was 24.8%.

Consider `O=C(CC(=O)c1nnn[nH]1)c1ccc(OCc2ccc(F)cc2)cc1`, for which the inhibition at 50 µM with Hepatitis C virus [1] amounted to 10.7%.

Consider `O=C(CC(=O)c1nnc[nH]1)c1cccc(OCc2ccc(F)cc2)c1`, for which the inhibition at 50 µM with Hepatitis C virus [1] is 43.4%.

For the compound `COc1ccc(C(=O)CC(=O)c2nnn[nH]2)cc1`, the inhibition at 50 µM in the series on Hepatitis C virus [1] stood at 28.7%.

`O=C(CC(=O)c1nnn[nH]1)c1ccc(OCc2ccc(Cl)cc2)cc1`: in the series with Hepatitis C virus [1], the inhibition at 50 µM was found to be 64.9%.

`O=C(CC(=O)c1ccccc1OCc1ccccc1)c1nnc[nH]1`: in the series on Hepatitis C virus [1], the inhibition at 50 µM amounted to 34.4%.

Turning to `O=C(/C=C(\O)c1nnn[nH]1)c1c[nH]c2ccc(Cl)cc12`, the inhibition at 50 µM in the series with Hepatitis C virus [1] came out at 24.3%.

With `O=C(CC(=O)c1ccccc1OCc1ccc(Cl)cc1)c1nnc[nH]1`, the inhibition at 50 µM in the series on Hepatitis C virus [1] was determined as 53.8%.

For `O=C(CC(=O)c1ccccc1OCc1ccc(Cl)cc1)c1nnn[nH]1`, the inhibition at 50 µM in the series with Hepatitis C virus [1] was found to be 36.2%.

In the case of `O=C(CC(=O)c1nnc[nH]1)c1cccc(OCc2ccccc2)c1`, in the series on Hepatitis C virus [1], the inhibition at 50 µM amounted to 48.2%.

With `O=C(CC(=O)c1ccccc1OCc1ccc(F)cc1)c1nnc[nH]1`, the inhibition at 50 µM in the series on Hepatitis C virus [1] was found to be 55%.

On to `O=C(CC(=O)c1nnc[nH]1)c1ccc(OCc2ccccc2)cc1`, for which the inhibition at 50 µM with Hepatitis C virus [1] was 12.1%.

In the case of `O=C(CC(=O)c1ccccc1OCc1ccccc1)c1nnn[nH]1`, in series [3], the “Ratio CC50/EC50” value is listed as above 54. The compound also registered a 50% cytotoxic concentration (CC50) in series [4] above 500 µM. Also, in the series with Hepatitis C virus [1], the inhibition at 50 µM is 67.6%. The EC50 in the series with Hepatitis C virus [5] stood at 9.2 µM.

Turning to `O=C(CC(=O)c1nnn[nH]1)c1ccccc1`, the inhibition at 50 µM in the series with Hepatitis C virus [1] is -1.3%.

On to `O=C(/C=C(\O)c1nc[nH]n1)c1ccc(Cc2ccc(F)cc2)o1` [S-1360], for which the inhibition at 50 µM in the series with Hepatitis C virus [1] turned out to be 22.4%.

With `O=C(CC(=O)c1ccco1)c1nnn[nH]1`, the inhibition at 50 µM with Hepatitis C virus [1] worked out at 0.9%.

Regarding `O=C(CC(=O)c1nnc[nH]1)c1ccc(OCc2ccc(F)cc2)cc1`, the inhibition result in the series on Hepatitis C virus [6] and in the series with Hepatitis C virus [7] was “Dose-dependent effect” in each case. In series [3], the “Ratio CC50/EC50” value is above 128. In series [4], this compound displayed a half-maximal cytotoxic concentration (CC50) above 500 µM. Also, the inhibition at 50 µM with Hepatitis C virus [1] worked out at 69.7%. In addition, the EC50 in the series on Hepatitis C virus [5] was 3.9 µM.

For the compound `O=C(CC(=O)c1ccco1)c1nnc[nH]1`, the inhibition at 50 µM in the series with Hepatitis C virus [1] stood at 14.5%.

`O=C(CC(=O)c1nnn[nH]1)c1ccc([N+](=O)[O-])cc1`: in the series on Hepatitis C virus [1], the inhibition at 50 µM stood at 14.7%.

Take `O=C(CC(=O)c1nnn[nH]1)c1cccc(OCc2ccc(F)cc2)c1`: in the series on Hepatitis C virus [1], the inhibition at 50 µM was 62.7%.

Consider `O=C(CC(=O)c1nnn[nH]1)c1cccc(OCc2ccc(Cl)cc2)c1`, for which, in the series with Hepatitis C virus [1], the inhibition at 50 µM came out at 43.6%.
